No end group written: not given here.
What was measured:
[1] = tested on: human iPS cell strain 201B2 (chromosome 12 trisomy); test: Evaluation of calreticulin expression inducing activity of synthetic peptides (immunofluorescence antibody assay), genomically unstable iPS cells; format: cell-based; details: peptide 10 μM in mTeSR 1 medium, 5 days, medium replaced every day; anti-calreticulin antibody, confocal laser microscope
Description: (§1) In the following Examples, iPS cells were used as an example of pluripotent stem cells. Specifically, cells used for tests were a genomically stable (specifically without a chromosome aberration) human iPS cell strain (clone: 201B7, hereinafter also merely referred to as 201B7) and a human iPS cell strain (clone: 201B2 hereinafter also merely referred to as 201B2) containing genomically unstable (specifically, chromosome 12 is triploid (trisomy)) cells. Both 201B7 and 201B2 are clones of iPS cells established from the same human fibroblasts (source: Takahashi K et al., Cell, 131, 861-872 (2007)). The iPS cells were provided by the Center for iPS Cell Research and Application, Kyoto University. […]
(§2) A primary antibody diluted solution prepared by adjusting a primary antibody, an anti-calreticulin monoclonal [FMC75] antibody (murine, available from Abeam, Cat No. ab22683, Lot No. GR56669-4), to a final concentration of 4×10^−3 mg/mL in 1% BSA/PBS (−) (PBS (−) containing 1% BSA) was added to the culture vessel of the iPS cells, and the mixture was left to stand overnight at 4° C. or 2 hours at room temperature. […] Thereafter, mounting was carried out with a DAPI (4′,6-diamidino-2-phenylindole)-containing mounting medium (available from Life Technologies) and a cover glass and fluorescence was observed under a confocal laser microscope. […]

[2] = tested on: human iPS cell strain 201B7; test: Evaluation of calreticulin expression inducing activity of synthetic peptides (immunofluorescence antibody assay), genomically stable iPS cells; format: cell-based; details: peptide 10 μM in mTeSR 1 medium, 5 days, medium replaced every day; anti-calreticulin antibody, confocal laser microscope
Description: as §1, §2

## KKRTLRKNDRKKR GG CRAKAGDPC (KKRTLRKNDRKKRGGCRAKAGDPC-NH2; cysteine pairing not given here) [sample 1, linear synthetic calreticulin expression inducing peptide, 24 residues]
[1]
  expression level of calreticulin in 201B2 (fluorescence of the label detecting calreticulin) compared to cells without addition of peptides: significantly increased
[2]
  expression level of calreticulin in 201B7 (fluorescence of the label detecting calreticulin) compared to cells without addition of peptides: almost no increase

Reference: patent US10067145B2, “Method for removing genomically unstable IPS cells and synthetic peptide used therefor” (TOAGOSEI CO., LTD., priority 2013, dated 2018)
